# Experimental data from the METLIN SMRT retention time set (Domingo-Almenara et al. 2019).
# Assay: gradient 5% acetonitrile 3 min, to 50% in 2 min, to 85% in 15 min, held 3 min, 100 µL/min
# Conditions: column: Zorbax Extend-C18 2.1 x 50 mm; eluents: water / acetonitrile, 0.1% formic acid
# Outline: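 In both positive and negative ionization mode, a quadrupole time-of-flight mass spectrometer coupled to HPLC analyzed pure standards run in mixtures of ~100 molecules. The Zorbax Extend-C18 column (2.1 × 50 mm, 1.8 μm) was operated at 100 μL/min with water and acetonitrile, each containing 0.1% formic acid. The dead volume was 40 μL and the dwell volume 900 μL. Retention time came from adduct peaks that were computationally picked and individually inspected by hand.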
row,RP-LC retention time,Structure (SMILES)
1,782 s,Cn1cc(S(=O)(=O)N2CCC(C(=O)N3CCc4ccccc4C3)CC2)cc1C(=O)N1CCCC1
2,696 s,CSc1ccc(C2C(C(=O)N3CCOCC3)=C(C)NC3=C2C(=O)CC(C)(C)C3)cc1 (configuration not stated)
3,678 s,CCCNC(=O)C1CCCN(c2ccc(SCC(=O)Nc3ccc(C)c(C)c3)nn2)C1 (configuration not stated)
4,780 s,CCOC(=O)C1CCCN(C(=O)c2cccc3c2SCCC3=O)C1 (configuration not stated)
5,672 s,Fc1ccc(F)c(CNc2nnc(-c3nc(C4CC4)no3)c3ccccc23)c1
6,1210 s,COc1ccc(NC(=O)Cc2c(C)nn(-c3nc(-c4ccc(Cl)cc4)cs3)c2C)cc1
7,1210 s,Cc1ccc(Cl)cc1-n1ncc2c(=O)n(Cc3nc(-c4cccc(F)c4)no3)cnc21
8,733 s,CCc1c(C)nc2ncnn2c1N1CCCC1
9,604 s,O=C(N[C@@H]1CN(c2ccncn2)C[C@H]1CO)c1ccc2ccccc2n1
10,746 s,COc1ncccc1CNC(=O)c1sccc1C
11,680 s,C1CCCC(NC2=NCCO2)CCC1
12,586 s,O=C(NCCCN1CCCC1)c1ccc(-c2ccc(NCc3ccccc3)nn2)cc1
13,691 s,CC(=O)N1CCc2cc(C)c(S(=O)(=O)NCC3CCCO3)cc21 (configuration not stated)
14,911 s,Cc1cc(OCC(=O)Nc2ccc(C)c(C)c2)nc(N2CCN(c3ccccc3)CC2)n1
15,1040 s,O=C(CSc1nccc2c1ccn2Cc1ccc(F)cc1)NCc1ccco1
16,643 s,COC(=O)c1cnc2nc(C)ccc2c1Nc1cc(OC)c(OC)c(OC)c1
17,682 s,COc1cc(OC)c(NC(=O)Nc2c(-c3ccccc3)nc3ccccn23)cc1Cl
18,691 s,O=C(CCn1cnc2cc(-c3noc(Cc4cccs4)n3)ccc21)N1CCCC1
19,603 s,COc1cc(OC)cc(C(=O)N2CCN(c3nnc4c(Cl)cccn34)CC2)c1
20,1180 s,Cc1ccc(Cl)cc1NC(=O)c1cc2ccccc2cc1O
21,1330 s,Cc1cc(C)c(S(=O)(=O)N2CCCC2c2nc(-c3ccccc3C)no2)c(C)c1 (configuration not stated)
22,959 s,Cc1cc(NC(=O)Cn2c(=O)cc(-c3nc(C(C)C)no3)c3ccccc32)ccc1F

row,RP-LC retention time,Structure (SMILES)
1,681 s,COc1ccc(NC(=O)Cn2c(=O)c(CCC(=O)NC3CCCC3)nc3ccccc32)cc1Cl
2,1150 s,CCc1nc(-n2cccc2)sc1C(=O)Nc1cccc(C)c1
3,778 s,CCc1ccccc1NC(=O)c1sc(C)nc1C
4,878 s,COc1ccc(-c2nnc(-c3ccc(C)c(S(=O)(=O)N(C)C)c3)o2)cc1OC
5,952 s,Cc1ccc(C)c(N2CCN(c3ccnc(SCC(=O)NCc4ccccc4Cl)n3)CC2)c1
6,941 s,COc1cccc(-c2nc(Cn3cnc4nc5c(cc4c3=O)CC(C)CC5)c(C)o2)c1OC (configuration not stated)
7,895 s,CCN1c2cc(C)ccc2-n2cccc2C12CCN(C(=O)NCC(=O)OC)CC2
8,818 s,COC(=O)c1cc(S(=O)(=O)N2CCCC2C(=O)Nc2ccccc2)cn1C (configuration not stated)
9,683 s,Cc1nc(C)c(-c2ccc(=O)n(CCNC(=O)c3csc(-c4ccccc4)n3)n2)s1
10,619 s,CC(=O)N1c2ccc(S(=O)(=O)N3CCCC3)cc2CC1C(=O)NCCCN1CCCCCC1 (configuration not stated)
11,682 s,COc1cc(-c2nc3ncccn3c2Nc2ccc(C)cc2C)ccc1O
12,815 s,COC(=O)CNC(=O)N1c2ccccc2CC1c1nc(C2CC2)no1 (configuration not stated)
13,1160 s,COc1ccc(Cn2c(=O)c3sccc3n(Cc3nc(-c4cccc(C)c4)no3)c2=O)cc1
14,608 s,CCC(C)NC(=O)Cn1cnc2nc(N3CCCC(C(=O)NC)C3)sc2c1=O (configuration not stated)
15,1190 s,O=c1c2sccc2n(Cc2nc(-c3cccc(C(F)(F)F)c3)no2)c(=O)n1Cc1ccccc1
16,764 s,CCOC(=O)CC1(NC(=O)N2CCc3c(c(C(=O)N4CCCC4)nn3C)C2)CCCCC1
17,1260 s,CC(Oc1ccccc1F)C(=O)Nc1ccc(-c2nc(-c3ccc(F)cc3)no2)cc1 (configuration not stated)
18,586 s,O=C(NCc1ccccn1)c1c(OCC2CC2)cc(=O)n2c1CCCCC2
19,777 s,CCCN1C(=O)CN(C2CCCCC2)C(=O)C1c1ccc(OC)c(OC)c1 (configuration not stated)
20,755 s,O=C(Nc1ccc(F)cc1)C1CCN(S(=O)(=O)c2cc(C(=O)N3CCOCC3)cs2)CC1
21,1090 s,COc1ccc(CN2C=C(C(=O)OCc3noc(-c4ccccc4F)n3)C(C)=NS2(=O)=O)cc1
22,794 s,Cc1nnc(-c2cc(NC(=O)Cc3c[nH]c4ccccc34)c(C)s2)o1

row,RP-LC retention time,Structure (SMILES)
1,597 s,CC(C)n1cnc2cc(CNC(=O)c3ccc(C#N)cc3F)ccc21
2,1210 s,CCCn1c(=O)c(C)nc2cc(-c3noc(/C=C/c4ccc(OC)cc4)n3)ccc21
3,860 s,Cc1cc(C(=O)NCc2ccco2)c2c(C)nn(-c3ccccc3Cl)c2n1
4,877 s,O=C(NCCN1CCCc2ccccc21)C1CCCN(c2ncnc3c2nc2n3CCCCC2)C1 (configuration not stated)
5,831 s,COc1ccc(S(=O)(=O)N2CCC(n3c(-c4ccoc4)nc4cccnc43)C2)cc1 (configuration not stated)
6,961 s,O=C(CCn1c(=O)oc2ccccc21)Nc1nc(-c2ccccc2)cs1
7,750 s,Cc1cc(C)nc(Sc2ccc(S(C)(=O)=O)cc2[N+](=O)[O-])n1
8,1060 s,COc1ccc(S(=O)(=O)N2CCCC(C(=O)Nc3cccc(C)c3)C2)cc1Cl (configuration not stated)
9,781 s,O=C(Nc1cccn2c(C3CCC3)nnc12)c1ccccn1
10,804 s,O=C(CSc1nc(N2CCCCC2)nc2ccccc12)Nc1ccc(Cl)cc1
11,789 s,Cc1ccc(CCNS(=O)(=O)c2ccc3c(c2)CCCC(=O)N3)cc1
12,558 s,CC1CCN(C(=O)C2CCN(c3cncnc3N3CCN(C)CC3)CC2)CC1
13,667 s,O=C(NC1(N2CCOCC2)CC1)c1ccc(Cl)cc1
14,937 s,CCCc1ccc(S(=O)(=O)N2C[C@@H](F)C[C@H]2C(=O)N2CCCCC2)cc1
15,906 s,Cc1ccc(CNC(=O)C2(C)CN(S(C)(=O)=O)CC(=O)N2Cc2ccc(Cl)cc2)cc1 (configuration not stated)
16,640 s,Cc1nc(-c2noc(-c3ccncc3)n2)cn1CC(=O)NCc1cccs1
17,758 s,CCCNC(=O)N1CCCC1c1nc(-c2ccc(OC)cc2)no1 (configuration not stated)
18,871 s,CCOc1ccccc1NC(=O)N1CCc2nc(OCCOC)ccc2C1
19,923 s,O=C(Nc1ccc2oc(-c3ccccc3)nc2c1)C1CCN(c2cnn(Cc3ccccc3)c(=O)c2)C1 (configuration not stated)
20,1140 s,O=C(Nc1nc(-c2ccc3ccccc3c2)cs1)c1cccc(Cn2cc(Cl)cn2)c1
21,1020 s,COc1ccc(Cc2nnc(SCC(=O)Nc3nc(-c4ccccc4)c(C)s3)o2)cc1
22,672 s,Cc1nnc(-c2ccc(=O)n(CC(=O)NCc3ccc(F)c(Cl)c3)c2)o1

row,RP-LC retention time,Structure (SMILES)
1,584 s,Cc1cc(Cl)ccc1NC(=O)N1CCCC1c1nnc2n1CCN(C)CC2 (configuration not stated)
2,663 s,CC(=O)Nc1onc(C)c1-c1ccc(C)c(S(=O)(=O)NCCc2ccc(S(N)(=O)=O)cc2)c1
3,627 s,Cn1cnc(S(=O)(=O)N2CCC(c3noc(-c4cccnc4)n3)C2)c1 (configuration not stated)
4,960 s,COc1ccc(S(=O)(=O)Cc2nc(-c3ccc(C)cc3)no2)cc1OC
5,637 s,CCC(CO)NCc1ccc(-c2ccc(F)cc2)o1 (configuration not stated)
6,709 s,Cc1ccc(CNC(=O)CCc2c(-c3ccc(Br)cc3)nc3ccccn23)cc1
7,1040 s,COc1ccc2[nH]c(-c3ccccc3)cc2c1
8,742 s,COc1ccc(CNC(=O)Cn2c(=O)c3cc(C4CC4)nn3c3ncccc32)cc1
9,647 s,CCC(=O)Nc1ccc(CCc2nc3ccc(C(=O)NC4CCCCC4)cc3[nH]2)cc1
10,809 s,CCOc1ccc2nc(NC(=O)C3CCN(S(=O)(=O)c4cn(CC)cn4)CC3)sc2c1
11,972 s,COc1cccc(C(=O)NCCOc2cccc(C(F)(F)F)c2)c1OC
12,1020 s,CCOCc1nc(C2CCCN2S(=O)(=O)c2ccc3c(c2)CCC3)no1 (configuration not stated)
13,675 s,CN(Cc1ccccc1)c1ccc(-c2noc(CN3CCCC3)n2)cn1
14,982 s,Cc1ccc(NC(=O)c2cccc([N+](=O)[O-])c2O)c([N+](=O)[O-])c1
15,942 s,O=C(c1ccc(-c2nccnc2N2CCCC2)cc1)N1CCN(c2ccccc2)CC1
16,1110 s,Cc1ccc(NC(=O)Cn2c(=O)cc(-c3nc(C(C)C)no3)c3ccccc32)c(Cl)c1
17,694 s,COc1ccc(-c2ncccc2CNS(=O)(=O)Cc2cc(F)cc(F)c2)cc1
18,663 s,CCc1c(C2CCN(C(=O)c3ccc(OC)nc3)CC2)noc1N
19,1040 s,O=C(CN1C(=O)C(C(=O)N2CCCC2)Sc2ccccc21)Nc1ccc(F)c(F)c1 (configuration not stated)
20,951 s,O=C(NCCCc1ccccc1)C1CCCN(c2nc3ccsc3c(=O)n2-c2ccc(F)cc2)C1 (configuration not stated)

row,Structure (SMILES),RP-LC retention time
1,CCN(CC)C(=O)N[C@H]1C[C@@H]2c3cccc4[nH]cc(c34)C[C@H]2N(C)C1,679 s
